Read-outs that look alike come from different tables or passages of the source.
What was measured:
5-HT1B = biological target: T1, 5-HT1B (Rattus norvegicus, UniProt P28564); test: [3H]GR125743 receptor binding in rat cortex; parameters: species or system Wistar rat
T1 construct: from tissue; host or cells: Wistar rat cortex membranes
Experimental: (§1) The homogenate was pressure filtered through muslin. Filtrate was centrifuged at 1000 g for 10 min. […] Protein content was determined by Bradford's method.

[1] = tested on: lipid peroxidation in rat brain homogenate; test: lipid peroxidation initiated by Fe2+-ascorbic acid in rat brain homogenates (TBARS); format: biochemical; details: rat brain homogenates; read-out: IC50 inhibiting lipid peroxidation initiated by Fe2+-ascorbic acid
Experimental: Rat brain homogenate was made in 0.9% saline containing 10 mg tissue/ml. The rates of membrane lipid peroxidation were measured by the formation of thiobarbituric acid (TBA)-reactive substance (TBARS). Rat brain homogenates (1 ml) were incubated at 37° C. for 5 min with 10 μl of test compound or vehicle. […] After 30 min of incubation, the reaction was stopped by adding 0.1 ml of 0.2% BHT. TBA reagent was then added and the mixture was heated for 30 min in a boiling water bath. […] The amount of TBARS was quantified using the linear regression obtained from malondialdehyde (MDA) standards.

[2] = LPS-induced blood glucose changes; format: in vivo, rat; details: for LPS-induced early hyperglycemia: at 1 and 3 hours; for LPS-induced hypoglycemia: at 5 hours
Experimental: (§2) In brief, Wistar rats weighing 250-300 g were anesthetized with pentobarbital sodium (50 mg kg^−1, i.p.). Following tracheal cannulation, systemic arterial BP and HR were recorded from the femoral artery by a pressure transducer (model P10EZ; Spectramed, Oxnard, Calif., U.S.A.) connected to a recorder (GOULD, Valley View, Ohio, Model P50). Body temperature was maintained at 37° C. by an electric heating pad. A femoral vein was cannulated for intravenous injection of drugs and LPS (10 mg kg^−1).
(§3) Blood was collected from venous cannula, injected into ice-cold heparinized Eppendorf tubes and centrifuged at 1500 rpm for 10 min at 4° C. Plasma supernatant was stored at −70° C. until analyzed. Solid phase enzyme immunoassay that specifically detects murine IL-1β, IL-6, IFN-γ and TNF-α was used with a detection limit of >10 pg/ml (Endogen, U.S.A). Pre-treatment with KMST and other agents was performed 15 minutes before intravenous injection of LPS. Blood was collected from venous cannula. Blood glucose was measured with a glucose test strip (Glucotide, Bayer, U.S.A) at 1, 3 and 5 hours.

[3] = tested on: phenylephrine-induced contractions in rat thoracic aorta; test: LPS-induced vascular hyporeactivity: phenylephrine-induced contractions in rat thoracic aorta; format: in vivo, Wistar rat
[4] = tested on: IL-1β, IL-6, IFN-γ and TNF-α; test: LPS-induced plasma cytokine immunoreactivity; format: in vivo, rat; details: 1 hour after LPS administration
Experimental: as §2, §3

α2 receptors = test: [3H]yohimbine receptor binding in rat cortex; parameters: species or system Wistar rat
Experimental: as §1

α1 receptors = test: [3H]prazosin receptor binding in rat cortex; parameters: species or system Wistar rat
Experimental: as §1

5-HT2A receptor = 5-HT2A receptor (Rattus norvegicus, UniProt P14842); test: [3H]ketanserin receptor binding in rat cortex; parameters: from tissue; host or cells: Wistar rat cortex membranes; species or system Wistar rat
Experimental: as §1

[5] = tested on: epinephrine-induced human platelet aggregation; test: epinephrine-induced human platelet aggregation; format: cell-based; details: epinephrine 5 μM, PRP
Experimental: (§4) Venous blood from human volunteer donors was collected in 10 ml Monovette containing 1 ml citrate solution (0.106M trisodium citrate; Sarstedt, Nümbrecht, Germany) and centrifuged (400 g, 10 min, 20° C.). […] After centrifugation (10 min, 2000 g, 20° C.), the platelet pellet was resuspended in wishing buffer (113 mM NaCl, 4 mM Na2HPO4, 24 mM NaH2PO4, 4 mM KCl, 0.2 mM EGTA(Ethylene glycol-bis-(2-aminoethyl ether) N,N,N′-tetraacetic acid), 0.1% (wt/vol) glucose, pH 6.0) and recentrifuged (10 min, 2000 g, 20° C.). The washed platelets were resuspended in incubation buffer (134 mM NaCl, 12 mM NaHCO3, 2.9 mM KCl, 0.34 mM NaH2PO4, 5 mM HEPES (N-(2-hydroxyethyl) piperazine-N′-(2-ethanesulfonic acid)), 5 mM glucose, pH7.4), cells were counted in a Sysmex hematology analyzer (Sysmex, CDA-500, Japan) and adjusted to a final concentration of 2×10^8 platelets/ml.
(§5) The aggregation of the platelets in platelet-rich plasma (PRP) was measured as a change in light absorbance by a Payton dual-channel aggregometer (NBS, Hema tracer, Japan). PRP (240 μL) was stirred (700 rpm) at 37° C. for 1 min, and 5 μL epinephrine (final concentration 5 μM), serotonin (final concentration 5 μM) was added. After which the rate of primary aggregation (1/min) and maximum aggregation (%) at 5 min were recorded. To study the effects of compounds on epinephrine or serotonin-induced aggregation, PRP was incubated with 5 μL of compounds at various concentrations for 1 min before epinephrine or serotonin was added. IC50 values given were calculated from the secondary aggregation data.

[6] = tested on: serotonin-induced human platelet aggregation; test: serotonin-induced human platelet aggregation; format: cell-based; details: serotonin 5 μM, PRP; read-out: IC50 serotonin-induced human platelet aggregation
Experimental: as §4, §5

β1 receptors = biological target: T2, β1 receptors (Rattus norvegicus, UniProt P18090); test: [3H]CGP-12177 receptor binding in rat ventricle; parameters: species or system Wistar rat; details: [3H]CGP-12177, rat ventricle
T2 construct: from tissue; host or cells: Wistar rat heart (ventricle) membranes
Experimental: as §1

5-HT1A = biological target: T3, 5-HT1A (Rattus norvegicus, UniProt P19327); test: [3H]WAY100635 receptor binding; details: read-out: Ki 5-HT1A; [3H]WAY100635
T3 sequence (P19327 1-422): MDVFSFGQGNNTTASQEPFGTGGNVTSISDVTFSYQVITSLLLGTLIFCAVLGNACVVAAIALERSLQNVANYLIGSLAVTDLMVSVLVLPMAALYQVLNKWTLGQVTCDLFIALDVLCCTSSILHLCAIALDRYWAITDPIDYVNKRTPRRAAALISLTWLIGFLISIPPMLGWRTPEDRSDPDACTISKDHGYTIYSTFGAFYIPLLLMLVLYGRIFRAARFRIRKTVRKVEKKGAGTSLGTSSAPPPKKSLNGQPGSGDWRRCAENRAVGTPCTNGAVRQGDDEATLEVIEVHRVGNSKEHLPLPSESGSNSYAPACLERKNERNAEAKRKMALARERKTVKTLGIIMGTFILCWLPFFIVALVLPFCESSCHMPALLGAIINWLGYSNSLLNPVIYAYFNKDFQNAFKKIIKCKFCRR

β2 receptors = biological target: T4, β2 receptors (Rattus norvegicus, UniProt P10608); test: [3H]CGP-12177 receptor binding in rat lung; parameters: species or system Wistar rat; details: [3H]CGP-12177, rat lung
T4 construct: from tissue; host or cells: Wistar rat lung membranes
Experimental: as §1

M2 = M2 receptor binding; parameters: species or system guinea pig
[7] = agent given after LPS injection (1 hr), pD2 to phenylephrine
[8] = agent given before LPS injection (30 min), pD2 to phenylephrine
[9] = after LPS injection (1 hr), 15 mg kg-1
[10] = before LPS injection (30 min), 1 mg kg-1
[11] = before LPS injection (30 min), 15 mg kg-1
[12] = [3H]GR125743 (5-HT1B/1D), rat cortex, read-out: Ki 5-HT1B

T1 sequence (P28564 whole entry): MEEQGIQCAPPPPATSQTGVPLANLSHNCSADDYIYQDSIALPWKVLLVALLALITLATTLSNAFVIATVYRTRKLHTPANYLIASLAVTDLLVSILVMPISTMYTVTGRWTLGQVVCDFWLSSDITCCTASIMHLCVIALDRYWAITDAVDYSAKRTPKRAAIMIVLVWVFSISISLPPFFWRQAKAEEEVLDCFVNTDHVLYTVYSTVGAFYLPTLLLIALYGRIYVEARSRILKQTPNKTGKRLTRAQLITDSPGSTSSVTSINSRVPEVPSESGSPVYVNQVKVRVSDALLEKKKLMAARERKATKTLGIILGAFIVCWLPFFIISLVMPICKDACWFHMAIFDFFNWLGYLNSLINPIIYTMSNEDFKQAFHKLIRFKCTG
T2 sequence (P18090 whole entry): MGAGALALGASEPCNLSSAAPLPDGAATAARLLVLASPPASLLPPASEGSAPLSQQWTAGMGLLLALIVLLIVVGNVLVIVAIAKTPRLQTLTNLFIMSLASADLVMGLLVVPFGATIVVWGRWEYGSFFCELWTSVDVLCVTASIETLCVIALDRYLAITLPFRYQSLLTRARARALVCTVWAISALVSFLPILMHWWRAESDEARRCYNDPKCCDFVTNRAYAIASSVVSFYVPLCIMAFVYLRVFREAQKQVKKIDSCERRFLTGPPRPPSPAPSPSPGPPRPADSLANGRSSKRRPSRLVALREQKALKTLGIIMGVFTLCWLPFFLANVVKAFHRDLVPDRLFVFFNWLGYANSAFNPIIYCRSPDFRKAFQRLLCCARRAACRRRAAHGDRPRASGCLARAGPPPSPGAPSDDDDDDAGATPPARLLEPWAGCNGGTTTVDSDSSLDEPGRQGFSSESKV
5-HT2A receptor, sequence (P14842 whole entry): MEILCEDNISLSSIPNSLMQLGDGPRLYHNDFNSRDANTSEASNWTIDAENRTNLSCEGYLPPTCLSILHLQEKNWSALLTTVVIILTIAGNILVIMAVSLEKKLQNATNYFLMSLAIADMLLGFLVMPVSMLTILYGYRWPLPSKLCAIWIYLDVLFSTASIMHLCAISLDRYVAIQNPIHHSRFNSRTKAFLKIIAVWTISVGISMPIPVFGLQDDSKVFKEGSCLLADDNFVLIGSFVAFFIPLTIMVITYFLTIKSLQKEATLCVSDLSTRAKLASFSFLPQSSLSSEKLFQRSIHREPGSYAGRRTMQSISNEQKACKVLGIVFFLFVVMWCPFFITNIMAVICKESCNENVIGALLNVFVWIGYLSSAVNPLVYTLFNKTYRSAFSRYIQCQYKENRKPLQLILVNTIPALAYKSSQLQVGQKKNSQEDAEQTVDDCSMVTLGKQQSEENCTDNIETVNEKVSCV
T4 sequence (P10608 whole entry): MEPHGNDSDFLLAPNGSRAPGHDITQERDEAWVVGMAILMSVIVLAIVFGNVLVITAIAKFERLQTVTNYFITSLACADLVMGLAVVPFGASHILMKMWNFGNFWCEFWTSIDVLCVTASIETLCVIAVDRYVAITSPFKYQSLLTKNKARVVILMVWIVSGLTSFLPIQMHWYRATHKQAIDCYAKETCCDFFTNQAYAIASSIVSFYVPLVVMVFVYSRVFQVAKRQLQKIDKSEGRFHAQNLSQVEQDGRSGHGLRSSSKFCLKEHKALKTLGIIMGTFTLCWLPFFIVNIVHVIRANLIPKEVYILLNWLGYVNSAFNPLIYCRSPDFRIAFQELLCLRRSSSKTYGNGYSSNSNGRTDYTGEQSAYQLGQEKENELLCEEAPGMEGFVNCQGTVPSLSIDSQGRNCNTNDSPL

## CCCCCCCCCOc1ccc2[nH]cc(CCN)c2c1 [5-nonyloxytryptamine, reference compound]
5-HT1B
  Ki: 5.81 nM

## Cl.N=C(N)NN [Aminoguanidine, aminoguanidine HCl]
[1]
  IC50: > 100000 nM
[2]
  LPS-induced early hyperglycemia: inhibited
  LPS-induced hypoglycemia: did not affect
[3]; [7]
  pD2 at 3rd hr: 6.48 ± 0.13
  pD2 at 5th hr: 5.81 ± 0.14
[3]; [8]
  pD2 at 3rd hr: 6.81 ± 0.17
  pD2 at 5th hr: 5.44 ± 0.31

## O=C1O[C@H]([C@@H](O)CO)C(O)=C1O [Ascorbic acid]
[1]
  IC50: 7150 ± 140 nM
[4]
  LPS-induced production of IFN-γ: insignificantly enhanced
[2]
  LPS-induced early hyperglycemia: inhibited
  LPS-induced hypoglycemia: did not affect
[3]; [9]
  pD2 at 3rd hr: 6.64 ± 0.16
  pD2 at 5th hr: 5.21 ± 0.12
[3]; [10]
  pD2 at 3rd hr: 7.07 ± 0.25
  pD2 at 5th hr: 5.04 ± 0.28
[3]; [11]
  pD2 at 3rd hr: 6.71 ± 0.13
  pD2 at 5th hr: 5.11 ± 0.22

## CC(C)NCC(O)COc1ccc(CC(N)=O)cc1 (stereo not drawn) [Atenolol]
α2 receptors
  Ki: > 10000 nM
α1 receptors
  Ki: > 10000 nM

## CC=Cc1ccc(OCC(O)CN2CCN(c3ccc(Cl)cc3)CC2)c(OC)c1 (stereo not drawn) [Compound 2]
5-HT2A receptor
  Ki: 2.99 nM
[5]
  IC50: 3900 nM
[6]
  IC50: 4.73 nM
5-HT1B; [12]
  Ki: 1090 nM
β1 receptors
  Ki: 106 nM
5-HT1A
  Ki: > 10000 nM
β2 receptors
  Ki: > 10000 nM
α2 receptors
  Ki: 1970 nM
α1 receptors
  Ki: 47 nM
M2
  Ki: > 10000 nM

## CC=Cc1ccc(OCCCN2CCN(c3cccc(Cl)c3)CC2)c(OC)c1 [Compound 3]
5-HT2A receptor
  Ki: 3.11 nM
[5]
  IC50: 4.38 nM
[6]
  IC50: 530 nM
5-HT1B; [12]
  Ki: 770 nM
β1 receptors
  Ki: 113 nM
5-HT1A
  Ki: > 10000 nM
β2 receptors
  Ki: > 10000 nM
α2 receptors
  Ki: 9290 nM
α1 receptors
  Ki: 142 nM
M2
  Ki: > 10000 nM

## NCCc1c[nH]c2ccc(O)cc12 [Compound 5-HT, 5-Hydroxytryptamine]
α2 receptors
  Ki: > 10000 nM
α1 receptors
  Ki: > 10000 nM

From patent US6887878B2, “KMST isoeugenol derivatives and pharmaceutical activity” (Ing-Jun Chen, priority 2003, dated 2005)
